Three compounds from ChEMBL document CHEMBL2417358, “Design, stereoselective synthesis, and biological evaluation of novel tri-cyclic compounds as inhibitor of apoptosis proteins (IAP) antagonists” (Bioorg Med Chem, 2013) can be followed below.

Series [1] in a line: Metabolic stability in mouse liver microsomes assessed as compound remaining at 1 umol/L after 15 to 30 mins by LC/MS/MS analysis. It is filed as ADME, Microsome. The settings on record: read-out: Stability.
The next series has as its system MDA-MB-231. The series can be described thus: Growth inhibition of human MDA-MB-231 cells after 72 hrs by luminescence assay. It is filed as functional. The settings on record: MDA-MB-231, 72 h.
Series [2] in a line: Metabolic stability in human liver microsomes assessed as compound remaining at 1 umol/L after 15 to 30 mins by LC/MS/MS analysis. It is filed as ADME, Microsome. Particulars: read-out: Stability. A general note: Liver microsomes are a subcellular fraction often used to study metabolism.
The test system of another series is Mus musculus. The series can be described thus: Upregulation of TNFalpha mRNA level in human MDA-MB-231 cells expressing luciferase xenografted in po dosed mouse after 6 hrs by RT-PCR analysis. It is filed as functional, organism-based.

As a reminder, the GI50 is the concentration that inhibits growth by half. A higher GI50 goes with less potent growth inhibition. Regarding `CN[C@@H](C)C(=O)N[C@H](C(=O)N1C[C@H]2C[C@H]3C[C@H]3N2C[C@H]1C(=O)N[C@@H]1CCOc2ccccc21)C1CCCCC1`, the microsomal CLint at 1 µM in series [1] turned out to be 45 µL/min/mg; in series [2] it was 39 µL/min/mg. Also, halving of growth with MDA-MB-231 (GI50) required 83 nM.
With `CN[C@@H](C)C(=O)N[C@H](C(=O)N1C[C@H]2CCCN2C[C@H]1C(=O)N[C@@H]1CCOc2ccccc21)C1CCCCC1`, in the series with MDA-MB-231, halving of growth (GI50) required 5.7 nM.
`CN[C@@H](C)C(=O)N[C@H](C(=O)N1C[C@H]2C[C@@H]3C[C@@H]3N2C[C@H]1C(=O)N[C@@H]1CCOc2ccccc21)C1CCCCC1`: in the series with Mus musculus, the Activity entry is “Dose-dependent effect”. Also, the values for the microsomal CLint at 1 µM in series [1] and in series [2] were 96 µL/min/mg and 72 µL/min/mg, respectively. Moreover, the concentration for 50% growth inhibition (GI50) with MDA-MB-231 is 7.8 nM.
